# Source: patent US9169268B2, “Use of 7-alkoxy fangchinoline compounds in preventing, alleviating and/or treating depression” (Peking University, priority 2012, dated 2015)
# Experiments:
# [1] = system: chronic unpredictable stress (CUS) model in rats; test: Depression-like behaviors overall in CUS model in rats (forced swimming, sucrose preference, autonomous mobility); assay type: in vivo; details: doses of 30 and 60 mg/kg
# Source text: The chronic unpredictable stress model is usually used as a depression model. The experimental method is as follows. […] These stressors were randomly scheduled over a one-week period and repeated throughout the 23-day experiment. The non-stress control group was housed under normal conditions. Time: between 9:00 a.m. and 2:00 p.m. Since Day 15, the animals in each group were daily intragastrically administered with the subject medicament and double distilled water based on body weight (blank group and CUS model group) respectively, 60 minutes before the stress. Imipramine (intraperitoneally, IP) was adopted as a positive control. Behavior and sleep electroencephalogram analyses were carried out on Day 22-23 of the stress. On Day 21, 60 minutes after the final administration, a sucrose solution intake test was carried out and sleep electroencephalogram was recorded simultaneously. On Day 22, EPM and forced swimming tests were carried out. Result 1: […]
# [2] = system: chronic unpredictable stress (CUS) model in rats; test: Autonomous movement in CUS model in rats; assay type: in vivo; details: 7 days
# Method: (§1) The chronic unpredictable stress model is usually used as a depression model. The experimental method is as follows. Stimulation includes forced swimming (10° C., 6 min), tail clamping (1 cm from the tail tip, 1 min), water deprivation (24 h), fasting (24 h), isolated housing (24 h), tail suspension (1 h), immobility (2 h), high-speed horizontal oscillation (120 times/min, 1 h), foot shock for 45 minutes (mean 1 mA, time course 1 s, once/min). These stressors were randomly scheduled over a one-week period and repeated throughout the 23-day experiment. The non-stress control group was housed under normal conditions. Time: between 9:00 a.m. and 2:00 p.m. Since Day 15, the animals in each group were daily intragastrically administered with the subject medicament and double distilled water based on body weight (blank group and CUS model group) respectively, 60 minutes before the stress. […] Behavior and sleep electroencephalogram analyses were carried out on Day 22-23 of the stress. On Day 21, 60 minutes after the final administration, a sucrose solution intake test was carried out and sleep electroencephalogram was recorded simultaneously. On Day 22, EPM and forced swimming tests were carried out.
# [3] = system: chronic unpredictable stress (CUS) model in rats; test: Sucrose solution preference in CUS model in rats; assay type: in vivo; details: 7 days
# Method: as §1
# [4] = molecular target: GSK-3β (Homo sapiens, UniProt P49841); test: GSK-3β activity assay (Z′-LYTE); assay type: biochemical; details: n = 3; read-out: Mean EC50 in the inhibition of GSK-3β activity
# Sequence of GSK-3β (P49841 whole entry): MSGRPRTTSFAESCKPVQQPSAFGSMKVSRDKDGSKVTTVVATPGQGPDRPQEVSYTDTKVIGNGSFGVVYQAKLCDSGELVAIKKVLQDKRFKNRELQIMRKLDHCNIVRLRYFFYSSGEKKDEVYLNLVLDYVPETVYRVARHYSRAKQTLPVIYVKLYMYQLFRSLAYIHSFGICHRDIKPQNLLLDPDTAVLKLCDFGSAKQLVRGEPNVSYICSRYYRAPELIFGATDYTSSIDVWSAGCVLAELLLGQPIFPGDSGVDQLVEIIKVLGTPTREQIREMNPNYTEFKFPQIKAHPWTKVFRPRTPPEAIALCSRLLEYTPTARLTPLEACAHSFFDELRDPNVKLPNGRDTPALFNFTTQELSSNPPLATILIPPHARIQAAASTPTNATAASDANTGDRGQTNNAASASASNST
# Method: The GSK-3β phosphorylation level was determined by using a Z′-LYTE assay (Life Technologies). The assay was performed in a 384-well plate. The wells of the testing plate were divided into blank control wells (without the enzyme), enzyme control wells (without the testing substance), and testing wells (with the enzyme and the testing substance at various concentrations). The inhibition rate of the testing substance is expressed as: inhibition %=(E−S)/(E−B)×100, wherein E is the average emission ratio of enzyme control wells; B is the average emission ratio of blank control wells; S is the emission ratio of the testing sample wells. The median effective concentration of each compound (EC50 μM) was calculated by using the resultant inhibition rate of each sample at various concentrations.
# [5] = system: chronic unpredictable stress (CUS) model in rats; test: Elevated plus-maze (EPM) anxiety test in CUS model in rats; assay type: in vivo; details: for anti-anxiety-like effect: doses of 30 and 60 mg/kg
# Method: as §1
# [6] = system: chronic unpredictable stress (CUS) model in rats; test: Forced swimming test in chronic unpredictable stress (CUS) model in rats; assay type: in vivo; details: 7 days
# Method: as §1
# [7] = system: GSK-3β phosphorylation level; test: GSK-3β phosphorylation level in mouse brain regions (Western blot); assay type: in vivo; details: mice
# Method: ICR mice were intragastrically administered of subject medicaments and vehicle. One hour later, brains of those treated mice were obtained after decapitation. Prefrontal lobe cortex, hipocampus, corpus striatum and hypothalamus were isolated and collected respectively. Then protein electrophoresis (Western blot) was carried out with each sample.
# [8] = system: forced swimming model in mice; test: Forced swimming model in mice; assay type: in vivo
# Method: A desperate behavior status of human beings may be simulated by an immobility status in a forced swimming model in mice. The mice were put into a cylindrical glass jar (height 20 cm, diameter 10 cm) with a water depth of 15 cm and water temperature of 25±1° C. The mice were allowed to pre-swim for 15 minutes before the experiment, and then were taken out, wiped dry at a warm place, and sent back into cages. In 24 hours, the mice received an intragastric administration; and 60 minutes after the administration, the mice were put into the above-mentioned environment. The accumulative immobility time of the mice in the jar during the 5-minute period of time after six minutes of swimming was measured. A decrease in immobility time was taken as evaluation index.
# [9] = Serum AST and ALT in mice after 14 days of intragastric administration; assay type: in vivo; details: mouse, in vivo, 60 mg/kg/day
# Method: Blood was collected from epicanthal, stood at room temperature for about 2 hours, and centrifuged for 12 minutes at 3000 r/min after coagulation. The serum was removed and centrifuged again. Alanine transaminase (ALT) and aspartate transaminase (AST) levels were determined
# [10] = system: chronic unpredictable stress (CUS) model in rats; test: Sleep electroencephalogram in CUS depression model in rats; assay type: in vivo
# Method: The chronic unpredictable stress model is usually used as a depression model. The experimental method is as follows. Stimulation includes forced swimming (10° C., 6 min), tail clamping (1 cm from the tail tip, 1 min), water deprivation (24 h), fasting (24 h), isolated housing (24 h), tail suspension (1 h), immobility (2 h), high-speed horizontal oscillation (120 times/min, 1 h), foot shock for 45 minutes (mean 1 mA, time course 1 s, once/min). These stressors were randomly scheduled over a one-week period and repeated throughout the 23-day experiment. The non-stress control group was housed under normal conditions. Time: between 9:00 a.m. and 2:00 p.m. Since Day 15, the animals in each group were daily intragastrically administered with the subject medicament and double distilled water based on body weight (blank group and CUS model group) respectively, 60 minutes before the stress. Imipramine (intraperitoneally, IP) was adopted as a positive control. Behavior and sleep electroencephalogram analyses were carried out on Day 22-23 of the stress. On Day 21, 60 minutes after the final administration, a sucrose solution intake test was carried out and sleep electroencephalogram was recorded simultaneously. On Day 22, EPM and forced swimming tests were carried out.
# Result 3: Sleep disturbance is one of the most common symptoms of neuropsychiatry. From a view of therapeutics, sleep disturbance is one of the most distressful events in patients suffered from nervous diseases and mental illness, especially in depression, and also one of major adverse events that may exacerbate the conditions of nervous disease and mental illness and impede the recovery in patients. For example, patients who are suffering from depression associated with insomnia may have an apparently higher incidence of a suicidal behavior, as compared with a non-insomnia group. Sleep disturbance in nervous and mental diseases can be simulated by using a CUS model in rats. […] Therefore, YH-200 could be useful for treating and ameliorating sleep disturbance in a patient suffering from depression (see, Table 4).
# [11] = Day 0 (baseline, before dosing)
compound,measurement,setting,value
12-acetoxyberbamine [reference compound],amelioration effect on depression-like behaviors,[1],no amelioration effect
same,Autonomous movement Distance,[2]; 30 mg/kg intragastric daily,984.41 ± 542.67 mm
same,Autonomous movement Speed,[2]; 30 mg/kg intragastric daily,3.28 ± 1.35 mm/second
same,Autonomous movement Distance,[2]; 60 mg/kg intragastric daily,1135.49 ± 575.54 mm
same,Autonomous movement Speed,[2]; 60 mg/kg intragastric daily,3.78 ± 1.46 mm/second
same,Sucrose solution preference,[3]; 30 mg/kg intragastric daily,54.29 ± 3.74%
same,Sucrose solution preference,[3]; 60 mg/kg intragastric daily,53.34 ± 3.04%
same,EC50,[4],> 10 µM
same,Percentage of entries into open arms relative to total entries into arms,[5]; 30 mg/kg intragastric daily,38.2 ± 1.8%
same,Percentage of residence time in open arms,[5]; 30 mg/kg intragastric daily,41.9 ± 3.7%
same,Percentage of entries into open arms relative to total entries into arms,[5]; 60 mg/kg intragastric daily,36.8 ± 1.6%
same,Percentage of residence time in open arms,[5]; 60 mg/kg intragastric daily,43.3 ± 3.4%
same,anti-anxiety-like effect,[5],no anti-anxiety-like effect
same,Forced swimming Immobility time,[6]; 30 mg/kg intragastric daily,179.2 ± 6.6 s
same,Forced swimming Immobility time,[6]; 60 mg/kg intragastric daily,169.9 ± 7.4 s
"CCOc1c(OC)cc2c3c1Oc1cc4c(cc1OC)CCN(C)C4Cc1ccc(cc1)Oc1cc(ccc1OC)CC3N(C)CC2 (stereo not shown) [Compound 3, 7-ethoxy fangchinoline]",p-GSK-3β level,"[7]; 30 mg/kg intragastric, 1 h, hypothalamus, versus blank control",evidently increased
same,influence on phosphorylated GSK-3β (p-GSK-3β) and total-GSK-3β,"[7]; 30 mg/kg intragastric, 1 h, prefrontal lobe cortex, hipocampus and corpus striatum",no evident influence
same,total GSK-3β level,"[7]; 60 mg/kg intragastric, 1 h, four brain sections",no influence
same,p-GSK-3β level,"[7]; 60 mg/kg intragastric, 1 h, prefrontal lobe cortex, hipocampus, corpus striatum and hypothalamus",significantly increased
same,enhancement of GSK-3β phosphorylation level with pMPPI given intraperitoneally 15 minutes before,"[7]; FIG. 3, prefrontal lobe cortex, hipocampus, corpus striatum and hypothalamus, n=6",could evidently inhibit
same,enhancement of GSK-3β phosphorylation level with 5-HT2A receptor agonist DOI,"[7]; FIG. 5, prefrontal lobe cortex, hipocampus, corpus striatum and hypothalamus, n=6",inhibited
same,anti-depression effect with 5-HT1A receptor antagonist pMPPI,"[8]; FIG. 2, n=12-15",could be inhibited
same,reduction of immobility time and extension of immobility latency period with 5-HT2A receptor agonist DOI,"[8]; FIG. 4, n=12-15",could be inhibited
same,Autonomous movement Distance,[2]; 7.5 mg/kg intragastric daily,"13612.65 ± 792.22^##,$$ mm"
same,Autonomous movement Speed,[2]; 7.5 mg/kg intragastric daily,"45.38 ± 2.64^##,$$ mm/second"
same,Autonomous movement Distance,[2]; 15 mg/kg intragastric daily,"14409.83 ± 664.54^##,$$ mm"
same,Autonomous movement Speed,[2]; 15 mg/kg intragastric daily,"48.03 ± 4.02^##,$$ mm/second"
same,Autonomous movement Distance,[2]; 30 mg/kg intragastric daily,"14636.14 ± 812.31^##,$$ mm"
same,Autonomous movement Speed,[2]; 30 mg/kg intragastric daily,"48.78 ± 5.36^##,$$ mm/second"
same,Sucrose solution preference,[3]; 7.5 mg/kg intragastric daily,"82.3 ± 3.3^##,$$ %"
same,Sucrose solution preference,[3]; 15 mg/kg intragastric daily,"93.6 ± 4.6^##,$$ %"
same,Sucrose solution preference,[3]; 30 mg/kg intragastric daily,"98.1 ± 3.7^##,$$ %"
same,ALT,[9],82.1 ± 16.4 U/L
same,AST,[9],102.3 ± 14.5 U/L
same,AST/ALT,[9],1.25 ± 0.18
same,melting point,,109.5 to 111 °C
same,EC50,[4],0.86 µM
same,Percentage of entries into open arms relative to total entries into arms,[5]; 7.5 mg/kg intragastric daily,"57.2 ± 1.8^##,$$ %"
same,Percentage of residence time in open arms,[5]; 7.5 mg/kg intragastric daily,"69.1 ± 2.4^##,$$ %"
same,Percentage of entries into open arms relative to total entries into arms,[5]; 15 mg/kg intragastric daily,"59.7 ± 2.2^##,$$ %"
same,Percentage of residence time in open arms,[5]; 15 mg/kg intragastric daily,"72.3 ± 3.6^##,$$ %"
same,Percentage of entries into open arms relative to total entries into arms,[5]; 30 mg/kg intragastric daily,"60.2 ± 2.0^##,$$ %"
same,Percentage of residence time in open arms,[5]; 30 mg/kg intragastric daily,"71.8 ± 3.2^##,$$ %"
same,effect on the sleep disturbance,[10]; 30 mg/kg p.o.,evident amelioration effect
same,Deep sleep (SWS) Time,[10]; [11],39.31 ± 10.22 min
same,NREM sleep Time,[10]; [11],174.44 ± 8.35 min
same,Rapid eye movement (REM) sleep Time,[10]; [11],37.95 ± 6.28 min
same,Total sleep Time,[10]; [11],212.40 ± 12.65 min
same,Deep sleep (SWS) Time,"[10]; Day 21, 30 mg/kg p.o.",48.18 ± 13.77 min
same,NREM sleep Time,"[10]; Day 21, 30 mg/kg p.o.",165.27 ± 7.97 min
same,Rapid eye movement (REM) sleep Time,"[10]; Day 21, 30 mg/kg p.o.",34.06 ± 1.75 min
same,Total sleep Time,"[10]; Day 21, 30 mg/kg p.o.",199.33 ± 9.11 min
12-(4-ethoxy)-butoxyberbamine [reference compound],amelioration effect on depression-like behaviors,[1],no amelioration effect
same,Autonomous movement Distance,[2]; 30 mg/kg intragastric daily,1367.52 ± 683.88 mm
same,Autonomous movement Speed,[2]; 30 mg/kg intragastric daily,4.56 ± 1.74 mm/second
same,Autonomous movement Distance,[2]; 60 mg/kg intragastric daily,935.73 ± 586.51 mm
same,Autonomous movement Speed,[2]; 60 mg/kg intragastric daily,3.12 ± 1.31 mm/second
same,Sucrose solution preference,[3]; 30 mg/kg intragastric daily,54.19 ± 4.45%
same,Sucrose solution preference,[3]; 60 mg/kg intragastric daily,53.27 ± 3.55%
same,EC50,[4],> 10 µM
same,Percentage of entries into open arms relative to total entries into arms,[5]; 30 mg/kg intragastric daily,36.6 ± 1.7%
same,Percentage of residence time in open arms,[5]; 30 mg/kg intragastric daily,40.1 ± 4.5%
same,Percentage of entries into open arms relative to total entries into arms,[5]; 60 mg/kg intragastric daily,37.2 ± 1.3%
same,Percentage of residence time in open arms,[5]; 60 mg/kg intragastric daily,39.2 ± 3.5%
same,anti-anxiety-like effect,[5],no anti-anxiety-like effect
same,Forced swimming Immobility time,[6]; 30 mg/kg intragastric daily,179.5 ± 6.3 s
same,Forced swimming Immobility time,[6]; 60 mg/kg intragastric daily,175.3 ± 8.4 s
